The record followed here is patent US20200017467A1, “NOVEL TRIAZOLE DERIVATIVES” (BAYER CROPSCIENCE AKTIENGESELLSCHAFT, priority 2017, published 2020).

Structures are written as SMILES.

One assay relates to Uromyces appendiculatus. The assay can be described thus: In vivo preventive test on Uromyces appendiculatus (bean rust). The settings on record: 264 h, 500 ppm of active ingredient, preventive spray, evaluated 11 days after inoculation, read-out: efficacy. The method, then: (§1) Example D: In Vivo Preventive Test on Uromyces appendiculatus (Bean Rust) [table] The active ingredients were made soluble and homogenized in a mixture of dimethyl sulfoxide/acetone//Tween® 80 and then diluted in water to the desired concentration. Young plants of bean were treated by spraying the active ingredient prepared as described above. Control plants were treated only with an aqueous solution of acetone/dimethyl sulfoxide/Tween® 80. After 24 hours, the plants were contaminated by spraying the leaves with an aqueous suspension of Uromyces appendiculatus spores. The contaminated bean plants were incubated for 24 hours at 20° C. and at 100% relative humidity and then for 10 days at 20° C. and at 70-80% relative humidity. The test was evaluated 11 days after the inoculation. 0% means an efficacy which corresponds to that of the control plants while an efficacy of 100% means that no disease was observed.

Assay [1] deals with Blumeria graminis fsp. hordei. The assay can be described thus: In vivo preventive Blumeria test (barley). The settings on record: 168 h, 500 ppm of active ingredient, preventive spray, evaluated 7 days after inoculation, read-out: efficacy. The method, then:
Example E: In Vivo Preventive Blumeria Test (Barlev) [table] To produce a suitable preparation of active compound, 1 part by weight of active compound or active compound combination was mixed with the stated amounts of solvent and emulsifier, and the concentrate was diluted with water to the desired concentration. To test for preventive activity, young plants were sprayed with the preparation of active compound or active compound combination at the stated rate of application. After the spray coating had been dried, the plants were dusted with spores of Blumeria graminis fsp. hordei. The plants were placed in the greenhouse at a temperature of approximately 18° C. and a relative atmospheric humidity of approximately 80% to promote the development of mildew pustules. The test was evaluated 7 days after the inoculation. 0% means an efficacy which corresponds to that of the untreated control, while an efficacy of 100% means that no disease is observed.

The subject of another assay is Puccinia recondita. The experiment in a line: In vivo preventive test on Puccinia recondita (brown rust on wheat). The settings on record: 264 h, 500 ppm of active ingredient, preventive spray, evaluated 11 days after inoculation, read-out: efficacy. The protocol: as §1, with “A:” for “D:”, “Puccinia recondita (Brown Rust on Wheat)” for “Uromyces appendiculatus (Bean Rust)”, “wheat” for “bean”, “Puccinia recondita” for “Uromyces appendiculatus”

In assay [2] the test system is Septoria tritici. The experiment in a line: Example F-C: in vivo 5 days preventive Septoria tritici test (wheat). The settings on record: Zymoseptoria tritici, 504 h, inoculated 5 days after spraying, evaluated 21 days after inoculation, read-out: Efficacy in % Example F-C. The method, then: Example F: In Vivo Septoria tritici Test (Wheat); Comparison of Pyridinyloxy-Pyridyl Compounds According to the Invention Vs. Compounds Known from WO-A 2010/146116 [table] To produce a suitable preparation of active compound, 1 part by weight of active compound or active compound combination is mixed with the stated amounts of solvent and emulsifier, and the concentrate is diluted with water to the desired concentration. Example F-C: In Vivo 5 Days Preventive Septoria tritici Test (Wheat) To test for preventive and long-lasting activity, young plants are sprayed with a preparation of active compound or active compound combination at the stated rate of application. After the spray coating has been dried, the plants are placed in the greenhouse at a temperature of approximately 15° C. and a relative atmospheric humidity of approximately 80%. 5 days later the plants are sprayed with a spore suspension of Septoria tritici. The plants remain for 48 hours in an incubation cabinet at approximately 20° C. and a relative atmospheric humidity of approximately 100% and afterwards for 60 hours at approximately 15° C. in a translucent incubation cabinet at a relative atmospheric humidity of approximately 100%. Then the plants are placed in the greenhouse at a temperature of approximately 15° C. and a relative atmospheric humidity of approximately 80%. The test is evaluated 21 days after the inoculation. 0% means an efficacy which corresponds to that of the untreated control, while an efficacy of 100% means that no disease is observed.

The subject of assay [3] is Septoria tritici. The assay can be described thus: Example F-A: in vivo preventive Septoria tritici test (wheat). The conditions noted are these: Zymoseptoria tritici, 504 h, evaluated 21 days after inoculation, read-out: Efficacy in % Example F-A. The protocol: Example F: In Vivo Septoria tritici Test (Wheat); Comparison of Pyridinyloxy-Pyridyl Compounds According to the Invention Vs. Compounds Known from WO-A 2010/146116 [table] To produce a suitable preparation of active compound, 1 part by weight of active compound or active compound combination is mixed with the stated amounts of solvent and emulsifier, and the concentrate is diluted with water to the desired concentration. Example F-A: In Vivo Preventive Septoria tritici Test (Wheat) To test for preventive activity, young plants are sprayed with the preparation of active compound or active compound combination at the stated rate of application. After the spray coating has been dried, the plants are sprayed with a spore suspension of Septoria tritici. The plants remain for 48 hours in an incubation cabinet at approximately 20° C. and a relative atmospheric humidity of approximately 100% and afterwards for 60 hours at approximately 15° C. in a translucent incubation cabinet at a relative atmospheric humidity of approximately 100%. The plants are placed in the greenhouse at a temperature of approximately 15° C. and a relative atmospheric humidity of approximately 80%. The test is evaluated 21 days after the inoculation. 0% means an efficacy which corresponds to that of the untreated control, while an efficacy of 100% means that no disease is observed.

Assay [4] relates to Septoria tritici. The assay can be described thus: In vivo preventive test on Septoria tritici (leaf spot on wheat). The settings on record: Zymoseptoria tritici, 576 h, 500 ppm of active ingredient, preventive spray, evaluated 24 days after inoculation, read-out: efficacy. The method, then: Example B: In Vivo Preventive Test on Septoria tritici (Leaf Spot on Wheat) [table] The active ingredients were made soluble and homogenized in a mixture of dimethyl sulfoxide/acetone//Tween® 80 and then diluted in water to the desired concentration. Young plants of wheat were treated by spraying the active ingredient prepared as described above. Control plants were treated only with an aqueous solution of acetone/dimethyl sulfoxide/Tween® 80. After 24 hours, the plants were contaminated by spraying the leaves with an aqueous suspension of Septoria tritici spores. The contaminated wheat plants were incubated for 72 hours at 18° C. and at 100% relative humidity and then for 21 days at 20° C. and at 90% relative humidity. The test was evaluated 24 days after the inoculation. 0% means an efficacy which corresponds to that of the control plants while an efficacy of 100% means that no disease was observed.

In the case of `OC(Cn1cncn1)c1ccc(Oc2ccc(C(F)(F)F)nc2)nc1C(F)(F)F` (stereo not shown) [I-09], the pest or weed control at 500 ppm in the assay on Uromyces appendiculatus is 90 to 100%; in assay [1] it was 90 to 100%; with Puccinia recondita, 90 to 100%; with Septoria tritici [2], 100%; with Septoria tritici [3] it was 100%; with Septoria tritici [4], 90 to 100%.
With `OC(Cn1cncn1)c1cnc(Oc2ccc(Br)nc2)cc1C(F)(F)F` (stereo not shown) [I-13], the pest or weed control at 500 ppm in assay [1] is 90 to 100%; in the assay on Puccinia recondita, 90 to 100%; in the assay with Septoria tritici [2] it was 100%; in the assay on Septoria tritici [3], 100%; with Septoria tritici [4], 90 to 100%.
As to `CC(O)(Cn1cncn1)c1ccc(Oc2ccc(C(F)(F)F)nc2)nc1C(F)(F)F` (stereo not shown) [I-02, 1-(1,2,4-triazol-1-yl)-2-[2-(trifluoromethyl)-6-[[6-(trifluoromethyl)-3-pyridyl]oxy]-3-pyridyl]propan-2-ol], the pest or weed control at 500 ppm in the assay on Uromyces appendiculatus was 90 to 100%; in assay [1] it was 90 to 100%; in the assay with Puccinia recondita it was 80 to 89%; with Septoria tritici [2] it was 100%; with Septoria tritici [3] it was 100%; in the assay on Septoria tritici [4], 90 to 100%.
Regarding `CC(O)(Cn1cncn1)c1cnc(Oc2ccc(Cl)nc2)cc1C(F)(F)F` (stereo not shown) [I-06, 2-[6-[(6-chloro-3-pyridyl)oxy]-4-(trifluoromethyl)-3-pyridyl]-1-(1,2,4-triazol-1-yl)propan-2-ol], the pest or weed control at 500 ppm with Uromyces appendiculatus was 90 to 100%; in assay [1] it was 90 to 100%; with Puccinia recondita, 90 to 100%; in the assay on Septoria tritici [2] it was 88%; in the assay on Septoria tritici [3], 100%; with Septoria tritici [4], 90 to 100%.
`CC(O)(Cn1cncn1)c1ccc(Oc2ccc(Br)nc2)nc1C(F)(F)F` (stereo not shown) [I-01, 2-[6-[(6-bromo-3-pyridyl)oxy]-2-(trifluoromethyl)-3-pyridyl]-1-(1,2,4-triazol-1-yl)propan-2-ol]: the pest or weed control at 500 ppm was 80 to 89% in the assay with Uromyces appendiculatus; 90 to 100% in assay [1]; 90 to 100% in the assay with Puccinia recondita; 100% in the assay on Septoria tritici [2]; 100% with Septoria tritici [3]; 90 to 100% in the assay with Septoria tritici [4].
`CC(O)(Cn1cncn1)c1cnc(Oc2ccc(C(F)(F)F)nc2)cc1C(F)(F)F` (stereo not shown) [I-04]: the pest or weed control at 500 ppm was 90 to 100% in the assay on Uromyces appendiculatus; 90 to 100% in assay [1]; 90 to 100% with Puccinia recondita; 100% in the assay with Septoria tritici [3]; 90 to 100% in the assay on Septoria tritici [4].
For the compound `CC(O)(Cn1cncn1)c1ccc(Oc2ccc(Cl)nc2)nc1C(F)(F)F` (stereo not shown) [I-05], the pest or weed control at 500 ppm in the assay on Uromyces appendiculatus was 90 to 100%; in assay [1], 90 to 100%; in the assay with Puccinia recondita, 80 to 89%; in the assay on Septoria tritici [2], 63%; in the assay with Septoria tritici [3], 100%; with Septoria tritici [4], 90 to 100%.
For `CC(O)(Cn1cncn1)c1cnc(Oc2ccc(Br)nc2)cc1C(F)(F)F` (stereo not shown) [I-07], the pest or weed control at 500 ppm is 70 to 79% with Uromyces appendiculatus; 90 to 100% in assay [1]; 80 to 89% in the assay on Puccinia recondita; 100% in the assay with Septoria tritici [2]; 100% in the assay with Septoria tritici [3]; 90 to 100% in the assay with Septoria tritici [4].
